Active and inactive are the calls of the source. No cut-off for these calls is given here.
Assays:
Staphylococcus aureus [1] = assay: Antimicrobial activity against Staphylococcus aureus expressing mgrA C12S mutant gene harboring Pyj335-His-mgrAC12S assessed as visible growth at 0.20 ug/ml after 24 hrs in presence of 25 uM paraquat; format: functional, organism-based
Staphylococcus aureus [2] = assay: Antimicrobial activity against Staphylococcus aureus expressing mgrA C12S mutant gene harboring plasmid Pyj335 assessed as visible growth at 0.20 ug/ml after 24 hrs; format: functional, organism-based
Staphylococcus aureus [3] = assay: Antimicrobial activity against Staphylococcus aureus assessed as visible growth at 0.45 ug/ml after 24 hrs; format: functional, organism-based
Staphylococcus aureus [4] = assay: Antimicrobial activity against Staphylococcus aureus expressing mgrA C12S mutant gene assessed as visible growth at 0.35 ug/ml after 24 hrs; format: functional, organism-based
Staphylococcus aureus [5] = assay: Antimicrobial activity against Staphylococcus aureus expressing mgrA C12S mutant gene harboring Pyj335-His-mgrA assessed as visible growth at 0.20 ug/ml after 24 hrs in presence of 100 uM hydrogen peroxide; format: functional, organism-based
Staphylococcus aureus [6] = assay: Antimicrobial activity against Staphylococcus aureus expressing mgrAC12S mutant gene harboring plasmid Pyj335 assessed as visible growth at 0.55 ug/ml after 24 hrs; format: functional, organism-based
Staphylococcus aureus [7] = assay: Antimicrobial activity against Staphylococcus aureus assessed as visible growth at 0.25 ug/ml after 24 hrs; format: functional, organism-based
Staphylococcus aureus [8] = assay: Antimicrobial activity against Staphylococcus aureus expressing mgrA C12S mutant gene harboring plasmid Pyj335 assessed as visible growth at 0.35 ug/ml after 24 hrs in presence of 20 uM paraquat; format: functional, organism-based
Staphylococcus aureus [9] = assay: Antimicrobial activity against Staphylococcus aureus expressing mgrA C12S mutant gene assessed as visible growth at 0.20 ug/ml after 24 hrs in presence of 25 uM paraquat; format: functional, organism-based
Staphylococcus aureus [10] = assay: Antimicrobial activity against Staphylococcus aureus expressing mgrA C12S mutant gene assessed as visible growth at 0.75 ug/ml after 24 hrs in presence of 20 uM paraquat; format: functional, organism-based
Staphylococcus aureus [11] = assay: Antimicrobial activity against Staphylococcus aureus expressing mgrA C12S mutant gene assessed as visible growth at 0.25 ug/ml after 24 hrs in presence of 20 uM paraquat; format: functional, organism-based
Staphylococcus aureus [12] = assay: Antimicrobial activity against Staphylococcus aureus expressing mgrA C12S mutant gene harboring Pyj335-His-mgrA assessed as visible growth at 0.25 ug/ml after 24 hrs; format: functional, organism-based
Staphylococcus aureus [13] = assay: Antimicrobial activity against Staphylococcus aureus expressing mgrA C12S mutant gene assessed as visible growth at 0.35 ug/ml after 24 hrs in presence of 20 uM paraquat; format: functional, organism-based
Staphylococcus aureus [14] = assay: Antimicrobial activity against Staphylococcus aureus expressing mgrA C12S mutant gene harboring plasmid Pyj335 assessed as visible growth at 0.25 ug/ml after 24 hrs in presence of 20 uM paraquat; format: functional, organism-based
Staphylococcus aureus [15] = assay: Antimicrobial activity against Staphylococcus aureus expressing mgrAC12S mutant gene assessed as visible growth at 0.20 ug/ml after 24 hrs in presence of 100 uM hydrogen peroxide; format: functional, organism-based
Staphylococcus aureus [16] = assay: Antimicrobial activity against Staphylococcus aureus expressing mgrA C12S mutant gene assessed as visible growth at 0.45 ug/ml after 24 hrs in presence of 20 uM paraquat; format: functional, organism-based
Staphylococcus aureus [17] = assay: Antimicrobial activity against Staphylococcus aureus expressing mgrA C12S mutant gene harboring plasmid Pyj335 assessed as visible growth at 0.65 ug/ml after 24 hrs; format: functional, organism-based
Staphylococcus aureus [18] = assay: Antimicrobial activity against Staphylococcus aureus assessed as visible growth at 0.20 ug/ml after 24 hrs; format: functional, organism-based
Staphylococcus aureus [19] = assay: Antimicrobial activity against Staphylococcus aureus expressing mgrA C12S mutant gene assessed as visible growth at 0.75 ug/ml after 24 hrs; format: functional, organism-based
Staphylococcus aureus [20] = assay: Antimicrobial activity against Staphylococcus aureus assessed as visible growth at 1.4 ug/ml after 24 hrs; format: functional, organism-based
Staphylococcus aureus [21] = assay: Antimicrobial activity against Staphylococcus aureus expressing mgrAC12S mutant gene harboring plasmid Pyj335-His-mgrA C12S assessed as highest concentration at which growth was visible after 24 hrs; format: functional
Staphylococcus aureus [22] = assay: Antimicrobial activity against Staphylococcus aureus expressing mgrA C12S mutant gene harboring Pyj335-His-mgrA assessed as visible growth at 1.4 ug/ml after 24 hrs; format: functional, organism-based
Staphylococcus aureus [23] = assay: Antimicrobial activity against Staphylococcus aureus expressing mgrA C12S mutant gene harboring plasmid Pyj335 assessed as visible growth at 1 ug/ml after 24 hrs in presence of 20 uM paraquat; format: functional, organism-based
Staphylococcus aureus [24] = assay: Antimicrobial activity against Staphylococcus aureus expressing mgrA C12S mutant gene assessed as visible growth at 0.6 ug/ml after 24 hrs in presence of 20 uM paraquat; format: functional, organism-based
Staphylococcus aureus [25] = assay: Antimicrobial activity against Staphylococcus aureus expressing mgrA C12S mutant gene harboring plasmid Pyj335 assessed as visible growth at 2.6 ug/ml after 24 hrs in presence of 20 uM paraquat; format: functional, organism-based
Staphylococcus aureus [26] = assay: Antimicrobial activity against Staphylococcus aureus expressing mgrA C12S mutant gene harboring plasmid Pyj335 assessed as visible growth at 1.1 ug/ml after 24 hrs; format: functional, organism-based
Staphylococcus aureus [27] = assay: Antimicrobial activity against Staphylococcus aureus expressing mgrA C12S mutant gene harboring Pyj335-His-mgrA assessed as visible growth at 1.8 ug/ml after 24 hrs; format: functional, organism-based
Staphylococcus aureus [28] = assay: Antimicrobial activity against Staphylococcus aureus expressing mgrA C12S mutant gene assessed as visible growth at 1.8 ug/ml after 24 hrs in presence of 20 uM paraquat; format: functional, organism-based
Staphylococcus aureus [29] = assay: Antimicrobial activity against Staphylococcus aureus assessed as visible growth at 2.6 ug/ml after 24 hrs; format: functional, organism-based
Staphylococcus aureus [30] = assay: Antimicrobial activity against Staphylococcus aureus expressing mgrA C12S mutant gene harboring Pyj335-His-mgrA assessed as visible growth at 2.6 ug/ml after 24 hrs; format: functional, organism-based
Staphylococcus aureus [31] = assay: Antimicrobial activity against Staphylococcus aureus expressing mgrA C12S mutant gene assessed as visible growth at 1 ug/ml after 24 hrs; format: functional, organism-based
Staphylococcus aureus [32] = assay: Antimicrobial activity against Staphylococcus aureus expressing mgrA C12S mutant gene harboring plasmid Pyj335 assessed as visible growth at 2.2 ug/ml after 24 hrs; format: functional, organism-based
Staphylococcus aureus [33] = assay: Antimicrobial activity against Staphylococcus aureus expressing mgrA C12S mutant gene harboring Pyj335-His-mgrA assessed as visible growth at 1.1 ug/ml after 24 hrs in presence of 25 uM paraquat; format: functional, organism-based
Staphylococcus aureus [34] = assay: Antimicrobial activity against Staphylococcus aureus expressing mgrA C12S mutant gene harboring plasmid Pyj335-His-mgrA assessed as visible growth at 1.8 ug/ml after 24 hrs in presence of 20 uM paraquat; format: functional, organism-based
Staphylococcus aureus [35] = assay: Antimicrobial activity against Staphylococcus aureus expressing mgrA C12S mutant gene harboring plasmid Pyj335 assessed as visible growth at 1.1 ug/ml after 24 hrs in presence of 25 uM paraquat; format: functional, organism-based
Staphylococcus aureus [36] = assay: Antimicrobial activity against Staphylococcus aureus expressing mgrA C12S mutant gene harboring plasmid Pyj335 assessed as visible growth at 1 ug/ml after 24 hrs; format: functional, organism-based
Staphylococcus aureus [37] = assay: Antimicrobial activity against Staphylococcus aureus assessed as visible growth at 2.2 ug/ml after 24 hrs in presence of 20 uM paraquat; format: functional, organism-based
Staphylococcus aureus [38] = assay: Antimicrobial activity against Staphylococcus aureus expressing mgrA C12S mutant gene harboring plasmid Pyj335 assessed as visible growth at 1.8 ug/ml after 24 hrs; format: functional, organism-based
Staphylococcus aureus [39] = assay: Antimicrobial activity against Staphylococcus aureus expressing mgrA C12S mutant gene harboring plasmid Pyj335 assessed as visible growth at 1.8 ug/ml after 24 hrs in presence of 20 uM paraquat; format: functional, organism-based

With `O=C(O)c1cn(C2CC2)c2cc(N3CCNCC3)c(F)cc2c1=O` [CIPROFLOXACIN] the Activity (Staphylococcus aureus [1]) was “Active”, the Activity (Staphylococcus aureus [2]) was “inactive” and the Activity (Staphylococcus aureus [3]) was “Active”. For the same compound, the Activity (Staphylococcus aureus [4]) was “inactive”, the Activity (Staphylococcus aureus [5]) was “Active” and the Activity (Staphylococcus aureus [6]) was “inactive”. For the same compound, the Activity (Staphylococcus aureus [7]) was “inactive”, the Activity (Staphylococcus aureus [8]) was “inactive” and the Activity (Staphylococcus aureus [9]) was “inactive”. For the same compound, the Activity (Staphylococcus aureus [10]) was “Active”, the Activity (Staphylococcus aureus [11]) was “inactive” and the Activity (Staphylococcus aureus [12]) was “inactive”. The Activity (Staphylococcus aureus [13]) was “inactive”, the Activity (Staphylococcus aureus [14]) was “inactive” and the Activity (Staphylococcus aureus [15]) was “inactive”. For the same compound, the Activity (Staphylococcus aureus [16]) was “inactive”, the Activity (Staphylococcus aureus [17]) was “inactive” and the Activity (Staphylococcus aureus [18]) was “Active”. The Activity (Staphylococcus aureus [19]) was “Active”.
`CN[C@H](CC(C)C)C(=O)N[C@H]1C(=O)N[C@@H](CC(N)=O)C(=O)N[C@H]2C(=O)N[C@H]3C(=O)N[C@H](C(=O)N[C@H](C(=O)O)c4cc(O)cc(O)c4-c4cc3ccc4O)[C@H](O)c3ccc(c(Cl)c3)Oc3cc2cc(c3O[C@@H]2O[C@H](CO)[C@@H](O)[C@H](O)[C@H]2O[C@H]2C[C@](C)(N)[C@H](O)[C@H](C)O2)Oc2ccc(cc2Cl)[C@H]1O` [VANCOMYCIN] was tested, and the Activity (Staphylococcus aureus [20]) was “Active”, the Activity (Staphylococcus aureus [21]) was 1 µg/mL and the Activity (Staphylococcus aureus [22]) was “Active”. For the same compound, the Activity (Staphylococcus aureus [23]) was “inactive”, the Activity (Staphylococcus aureus [24]) was “inactive” and the Activity (Staphylococcus aureus [25]) was “Active”. For the same compound, the Activity (Staphylococcus aureus [26]) was “inactive”, the Activity (Staphylococcus aureus [27]) was “Active” and the Activity (Staphylococcus aureus [28]) was “inactive”. For the same compound, the Activity (Staphylococcus aureus [29]) was “Active”, the Activity (Staphylococcus aureus [30]) was “Active” and the Activity (Staphylococcus aureus [31]) was “inactive”. The Activity (Staphylococcus aureus [32]) was “inactive”, the Activity (Staphylococcus aureus [33]) was “Active” and the Activity (Staphylococcus aureus [34]) was “inactive”. For the same compound, the Activity (Staphylococcus aureus [35]) was “inactive”, the Activity (Staphylococcus aureus [36]) was “inactive” and the Activity (Staphylococcus aureus [37]) was “Active”. The Activity (Staphylococcus aureus [38]) was “inactive” and the Activity (Staphylococcus aureus [39]) was “inactive”.

— ChEMBL document CHEMBL1240316, “An oxidation-sensing mechanism is used by the global regulator MgrA in Staphylococcus aureus” (2006)
